Test results reported in PubChem BioAssay (NCI).
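48-hour exposure; five concentrations; linearly interpolated endpoints. GI50 = concentration required for 50% inhibition of growth. The concentration for full growth arrest is given as TGI.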

Experiments:
Assay in all cases: DTP human tumour cell line panel, 48 h
UACC-257 melanoma = test system: UACC-257 melanoma
MALME-3M melanoma = test system: MALME-3M melanoma
CCRF-CEM leukemia = test system: CCRF-CEM leukemia
NCI-H460 lung = test system: NCI-H460 lung
HCT-15 colon = test system: HCT-15 colon
SN12C renal = test system: SN12C renal
CAKI-1 renal = test system: CAKI-1 renal
COLO 205 colon = test system: COLO 205 colon
786-0 renal = test system: 786-0 renal
NCI-H23 lung = test system: NCI-H23 lung
TK-10 renal = test system: TK-10 renal
HCC-2998 colon = test system: HCC-2998 colon
U251 CNS = test system: U251 CNS
DU-145 prostate = test system: DU-145 prostate
HL-60(TB) leukemia = test system: HL-60(TB) leukemia
OVCAR-3 ovarian = test system: OVCAR-3 ovarian
SK-MEL-2 melanoma = test system: SK-MEL-2 melanoma
SNB-75 CNS = test system: SNB-75 CNS
HT29 colon = test system: HT29 colon
K-562 leukemia = test system: K-562 leukemia
SF-268 CNS = test system: SF-268 CNS
UACC-62 melanoma = test system: UACC-62 melanoma
MCF7 breast = test system: MCF7 breast
BT-549 breast = test system: BT-549 breast
T-47D breast = test system: T-47D breast
HOP-62 NSCLC = test system: HOP-62 NSCLC
PC-3 prostate = test system: PC-3 prostate
HCT-116 colon = test system: HCT-116 colon
SK-MEL-28 melanoma = test system: SK-MEL-28 melanoma
NCI/ADR-RES ovarian = test system: NCI/ADR-RES ovarian
OVCAR-8 ovarian = test system: OVCAR-8 ovarian
SK-MEL-5 melanoma = test system: SK-MEL-5 melanoma
SNB-19 CNS = test system: SNB-19 CNS
SF-295 CNS = test system: SF-295 CNS
KM12 colon = test system: KM12 colon
A549 NSCLC = test system: A549 NSCLC
IGROV1 ovarian = test system: IGROV1 ovarian
SW-620 colon = test system: SW-620 colon
MDA-MB-231 breast = test system: MDA-MB-231 breast
UO-31 renal = test system: UO-31 renal
OVCAR-4 ovarian = test system: OVCAR-4 ovarian
LOX IMVI melanoma = test system: LOX IMVI melanoma
OVCAR-5 ovarian = test system: OVCAR-5 ovarian
HS 578T breast = test system: HS 578T breast
SF-539 CNS = test system: SF-539 CNS
EKVX NSCLC = test system: EKVX NSCLC
HOP-92 NSCLC = test system: HOP-92 NSCLC
NCI-H522 lung = test system: NCI-H522 lung
SR leukemia = test system: SR leukemia
SK-OV-3 ovarian = test system: SK-OV-3 ovarian
RPMI-8226 leukemia = test system: RPMI-8226 leukemia
MOLT-4 leukemia = test system: MOLT-4 leukemia
MDA-MB-435 = test system: MDA-MB-435
NCI-H226 lung = test system: NCI-H226 lung
ACHN renal = test system: ACHN renal
A498 renal = test system: A498 renal
M14 melanoma = test system: M14 melanoma

For COC(=O)c1c2c(c[n+]([O-])c1C)C(=O)C=CC2=O, the GI50 (UACC-257 melanoma) was 2.26 µM, the TGI (UACC-257 melanoma) was 5.54 µM and the GI50 (MALME-3M melanoma) was 1.25 µM. It also gave a TGI (MALME-3M melanoma) of 2.51 µM, a GI50 (CCRF-CEM leukemia) of 2.5 µM and a TGI (CCRF-CEM leukemia) of 6.57 µM. For the same molecule, the GI50 (NCI-H460 lung) was 12.8 µM, the TGI (NCI-H460 lung) was 28 µM and the GI50 (HCT-15 colon) was 1.78 µM. It also gave a TGI (HCT-15 colon) of 3.51 µM, a GI50 (SN12C renal) of 1.76 µM and a TGI (SN12C renal) of 3.23 µM. It also gave a GI50 (CAKI-1 renal) of 1.7 µM, a TGI (CAKI-1 renal) of 3.16 µM and a GI50 (COLO 205 colon) of 1.85 µM. The TGI (COLO 205 colon) was 3.93 µM, the GI50 (786-0 renal) was 2.56 µM and the TGI (786-0 renal) was 6.39 µM. It also gave a GI50 (NCI-H23 lung) of 1.88 µM, a TGI (NCI-H23 lung) of 4.26 µM and a GI50 (TK-10 renal) of 2.99 µM. For the same molecule, the TGI (TK-10 renal) was 9.57 µM, the GI50 (HCC-2998 colon) was 4.25 µM and the TGI (HCC-2998 colon) was 15.5 µM. For the same molecule, the GI50 (U251 CNS) was 2.15 µM, the TGI (U251 CNS) was 5.22 µM and the GI50 (DU-145 prostate) was 1.85 µM. The TGI (DU-145 prostate) was 3.54 µM, the GI50 (HL-60(TB) leukemia) was 2.13 µM and the TGI (HL-60(TB) leukemia) was 5.75 µM. For the same molecule, the GI50 (OVCAR-3 ovarian) was 0.317 µM, the TGI (OVCAR-3 ovarian) was 1.17 µM and the GI50 (SK-MEL-2 melanoma) was 2.08 µM. For the same molecule, the TGI (SK-MEL-2 melanoma) was 4.5 µM, the GI50 (SNB-75 CNS) was 1.72 µM and the TGI (SNB-75 CNS) was 4.13 µM. The GI50 (HT29 colon) was 4.1 µM, the TGI (HT29 colon) was 56.3 µM and the GI50 (K-562 leukemia) was 2.51 µM. The TGI (K-562 leukemia) was > 100 µM, the GI50 (SF-268 CNS) was 2.83 µM and the TGI (SF-268 CNS) was 10.7 µM. For the same molecule, the GI50 (UACC-62 melanoma) was 1.81 µM, the TGI (UACC-62 melanoma) was 3.4 µM and the GI50 (MCF7 breast) was 1.65 µM. It also gave a TGI (MCF7 breast) of 3.46 µM, a GI50 (BT-549 breast) of 1.78 µM and a TGI (BT-549 breast) of 3.23 µM. It also gave a GI50 (T-47D breast) of 2.33 µM, a TGI (T-47D breast) of 6.85 µM and a GI50 (HOP-62 NSCLC) of 2.6 µM. The TGI (HOP-62 NSCLC) was 7.71 µM, the GI50 (PC-3 prostate) was 4.34 µM and the TGI (PC-3 prostate) was 55.1 µM. It also gave a GI50 (HCT-116 colon) of 2.19 µM, a TGI (HCT-116 colon) of 5.18 µM and a GI50 (SK-MEL-28 melanoma) of 2.14 µM. It also gave a TGI (SK-MEL-28 melanoma) of 3.97 µM, a GI50 (NCI/ADR-RES ovarian) of 3.27 µM and a TGI (NCI/ADR-RES ovarian) of 14.4 µM. It also gave a GI50 (OVCAR-8 ovarian) of 2.93 µM, a TGI (OVCAR-8 ovarian) of 10.8 µM and a GI50 (SK-MEL-5 melanoma) of 1.74 µM. For the same molecule, the TGI (SK-MEL-5 melanoma) was 3.15 µM, the GI50 (SNB-19 CNS) was 3.02 µM and the TGI (SNB-19 CNS) was 10.9 µM. The GI50 (SF-295 CNS) was 3.43 µM, the TGI (SF-295 CNS) was 13.2 µM and the GI50 (KM12 colon) was 4.27 µM. For the same molecule, the TGI (KM12 colon) was 18.8 µM, the GI50 (A549 NSCLC) was 16.1 µM and the TGI (A549 NSCLC) was 40.1 µM. For the same molecule, the GI50 (IGROV1 ovarian) was 2.11 µM, the TGI (IGROV1 ovarian) was 4.54 µM and the GI50 (SW-620 colon) was 2.08 µM. It also gave a TGI (SW-620 colon) of 5.36 µM, a GI50 (MDA-MB-231 breast) of 2.01 µM and a TGI (MDA-MB-231 breast) of 5.46 µM. It also gave a GI50 (UO-31 renal) of 1.52 µM, a TGI (UO-31 renal) of 3.03 µM and a GI50 (OVCAR-4 ovarian) of 1.44 µM. The TGI (OVCAR-4 ovarian) was 2.83 µM, the GI50 (LOX IMVI melanoma) was 1.96 µM and the TGI (LOX IMVI melanoma) was 4.18 µM. The GI50 (OVCAR-5 ovarian) was 1.9 µM, the TGI (OVCAR-5 ovarian) was 3.85 µM and the GI50 (HS 578T breast) was 2.17 µM. The TGI (HS 578T breast) was 6.04 µM, the GI50 (SF-539 CNS) was 1.79 µM and the TGI (SF-539 CNS) was 3.39 µM. For the same molecule, the GI50 (EKVX NSCLC) was 1.83 µM, the TGI (EKVX NSCLC) was 4.25 µM and the GI50 (HOP-92 NSCLC) was 2.84 µM. For the same molecule, the TGI (HOP-92 NSCLC) was 9.06 µM, the GI50 (NCI-H522 lung) was 1.72 µM and the TGI (NCI-H522 lung) was 4.5 µM. The GI50 (SR leukemia) was 2.72 µM, the TGI (SR leukemia) was > 100 µM and the GI50 (SK-OV-3 ovarian) was 19.3 µM. The TGI (SK-OV-3 ovarian) was 51.1 µM, the GI50 (RPMI-8226 leukemia) was 3.9 µM and the TGI (RPMI-8226 leukemia) was 26.6 µM. For the same molecule, the GI50 (MOLT-4 leukemia) was 2.43 µM, the TGI (MOLT-4 leukemia) was 6.21 µM and the GI50 (MDA-MB-435) was 1.68 µM. It also gave a TGI (MDA-MB-435) of 3.15 µM, a GI50 (NCI-H226 lung) of 2.12 µM and a TGI (NCI-H226 lung) of 4.52 µM. It also gave a GI50 (ACHN renal) of 1.73 µM, a TGI (ACHN renal) of 3.22 µM and a GI50 (A498 renal) of 13.1 µM. The TGI (A498 renal) was 26.4 µM, the GI50 (M14 melanoma) was 1.87 µM and the TGI (M14 melanoma) was 3.69 µM.
